Experimental findings from patent US8785430B2, “Compound that can inhibit UBC13-UEV interactions, pharmaceutical compositions and therapeutic uses” (Consejo Superior de Investigaciones Cientificas, priority 2006, dated 2014) are described below.

One experiment deals with PC-3 cells. The experiment is described as follows: CyQuant cell count, sensitization to doxorubicin. The following applies: Homo sapiens. The format is cell-based, human. The method, then:
The addition of 100 μM of Ia reduced the IC50 of doxorubicin to 0.1 μM for PC-3 cells and the IC50 of etoposide to 0.04 μM for HeLa cells. Therefore, the treatment with 100 μM of compound Ia causes a sensitization to the cytotoxic effects of doxorubicin of 5 times (PC-3 cells) and a sensitization to the cytotoxic effects of etoposide of 30 times (HeLa cells).

Another experiment has as its system PC-3.Sluc cells tumors. Nature of the experiment: PC-3.Sluc tumor xenografts in Balb/c nu/nu mice, light emission (RLUs). The format is in vivo. The following applies: doxorubicin alone i.v., 5 mg/Kg, once a week; 56 days. The procedure: For the purpose of determining if Varubin has an in vivo antitumor activity, its effects in mice having tumors formed from PC-3 cells were analyzed. The experimental tumors were formed by means of the intramuscular inoculation of PC-3.Sluc cells. The latter are PC-3 prostate cells in which they have been integrated by means of transfecting plasmid pRC/CMV-luc, which expresses the firefly (Photinus pyralis) luciferase gene in mammalian cells q. The incubation of the PC-3.luc cells with D-luciferin, a luciferase substrate, produces light, which can be quantified in an absolute manner (number of photons) either by means of a luminometer or by means of detection with a CCD (charge-coupled device) camera. The latter process further allows representing in real time images of the location of the tumor cells in the inoculated animals, as well as the tumor size, since the intensity of the light (number of photons) emitted in the presence of luciferin is directly proportional to the number of PC-3.luc cells.
For these studies, 24 male Balb/c nu/nu mice (Charles River Laboratories) of an age of 6 weeks were used. These animals were kept in a pathogen-free environment at all times, having been kept in the animal housing facility for 1 week after they were received, before the experimental handling. After being anesthetized by means of an intraperitoneal (i.p.) injection of a mixture at equal parts of 6 mg/Kg of droperidol (Roche, Basel, Switzerland) and 12 mg/Kg of midazolam (Rovi S.A, Madrid, Spain), intramuscular (i.m.) injections were performed both in the right leg and in the left leg of each animal of 1×10^6 PC-3.Sluc cells, suspended in 100 μL of fetal bovine serum-free culture medium. The development of tumors in the inoculation sites was allowed for 2 weeks, after which a first measurement of photons emitted was made and a first capture of images with an ORCA-2BT Imaging System instrument (Hammamatsu Photonics) provided with a C4742-98-LWG-MOD model CCD camera (cooled at −80° C.) was done at a resolution of 512×512 pixels. […] Four minutes later, photons were detected and quantified for 5 minutes in the instrument described above. […] The quantification and the analysis of photons were performed with the aid of the image analysis program WASABI (Hamamatsu Photonics). […] For the graphic representations, the quantitative data (RLUs) were standardized, for each tumor, in relation to the RLUs of day 0 of treatment.
The 24 mice, having luminescent tumors in both legs, were included in 4 experimental groups: (1) Control group, in which an intravenous (i.v.) injection of 100 μL of phosphate buffered saline pH 7.4 (PBS) and 50 μL of intratumoral (i.t.) PBS was performed. […] The light emission of the tumors was analyzed throughout 56 days from the start of the treatment.

In a further experiment the test system is HeLa cells. Nature of the experiment: CyQuant cell count, sensitization to etoposide. As to conditions: Homo sapiens, HeLa, 24 h, read-out: IC50 for etoposide.

Read-outs that look alike come from different tables or passages of the source.

What is called IC50 is the concentration that inhibits the measured activity by half. For the molecule `COc1cccc2c1C(=O)c1c(O)c3c(c(O)c1C2=O)C[C@@](O)(C(=O)CO)C[C@@H]3O[C@H]1C[C@H](N)[C@H](O)[C@H](C)O1` [doxorubicin], the IC50 is approximately 500 nM with PC-3 cells (72 hours of treatment, doxorubicin alone, read-out: IC50 for doxorubicin) and 100 nM in the experiment with PC-3 cells (plus 100 μM of Ia, read-out: IC50 of doxorubicin with addition of Ia). Moreover, the “tumor growth (RLUs)” value in the experiment with PC-3.Sluc cells tumors is “hardly experienced growth”.

Take `COc1cc([C@@H]2c3cc4c(cc3[C@@H](O[C@@H]3O[C@@H]5CO[C@@H](C)O[C@H]5[C@H](O)[C@H]3O)[C@H]3COC(=O)[C@H]23)OCO4)cc(OC)c1O` [etoposide, reference compound]: in the experiment with HeLa cells, the IC50 was approximately 1250 nM.
